According to patent US20190060340A1, “NOVEL AMINOGLYCOSIDES AND USES THEREOF IN THE TREATMENT OF GENETIC DISORDERS” (Technion Research & Development Foundation Limited, priority 2007, published 2019):
Values joined by “and” are separate entries in the source; they are usually repeats but may differ in a detail not shown here. Identical values can stand only once.

How the values were obtained:
[1] = test system: G542X (CFTR, Cystic Fibrosis); experiment: Dual luciferase in vitro transcription/translation assay; format: biochemical, human
Excerpt: (§1) DNA fragments derived from the subsequent genes, including the tested stop mutation or the corresponding wild-type codon, and four upstream and downstream flanking codons (except for p.R3X constructs, in which there are only two upstream PCDH15-flanking codons) were cloned into p2Luc plasmid between renilla and firefly luciferase genes as described previously. The formed plasmids, as well as the original p2Luc plasmid containing a TGA C nonsense mutation, were transcribed and translated in vitro and the stop codon suppression efficiency was calculated as described previously.
(§2) For the dual luciferase in vitro transcription/translation assay, DNA fragments derived from PCDH15, CFTR, Dystrophin and IDUA cDNAs, including the tested stop mutation or the corresponding wild-type codon, and four upstream and downstream flanking codons (except for p.R3X constructs, in which there are only two upstream PCDH15-flanking codons) were created by annealing the couples of complementary oligonucleotides presented above.
(§3) Fragments were inserted into the SalI and SacI restriction sites of the p2Luc plasmid between renilla and firefly luciferase genes. The afforded plasmids, as well as the original p2Luc plasmid containing a TGA C nonsense mutation, were transcribed and translated using the TNT Reticulocyte Lysate Quick Coupled Transcription/Translation System (Promega™). Each transcription/translation reaction (10 μl, total volume) contained 8 μl TNT T7 Quick Master Mix, 0.2 μl methionine (1 mM), 0.8 μl DNA template (2 μg/μl), 1 μl of either water (blank) or 1 μl solution of increasing concentrations of the tested aminoglycosides in water. Luciferase activity was determined following 90 minutes incubation at 30° C. using the Dual Luciferase Reporter Assay System (Promega™). The total luminescence produced by each one of the proteins was measured separately using the FLx800 multidetection plate reader (Bio-Tek) and the stop codon suppression efficiency was calculated as described previously. The results are averages of at least three independent experiments.

[2] = test system: W402X (IDUA, Hurler Syndrome); experiment: as above; format: biochemical, human
Excerpt: as §1, §2, §3

[3] = test system: R245X (PCDH15, Usher Syndrome); experiment: as above; format: biochemical, human
Excerpt: as §1, §2, §3

[4] = test system: W1282X (CFTR, Cystic Fibrosis); experiment: as above; format: biochemical, human
Excerpt: as §1, §2, §3

[5] = test system: Q70X (IDUA, Hurler Syndrome); experiment: as above; format: biochemical, human
Excerpt: as §1, §2, §3

[6] = test system: R3X (PCDH15, Usher Syndrome); experiment: as above; format: biochemical, human
Excerpt: as §1, §2, §3

[7] = test system: R3381X (Dystrophin, Duchenne Muscular Dystrophy); experiment: as above; format: biochemical, human
Excerpt: as §1, §2, §3

[8] = test system: R245X nonsense mutation (a premature UGA A stop codon) of the PCDH15 gene; experiment: In vitro suppression, pDB reporter plasmid in reticulocyte lysate; format: biochemical, human; details: for Concentration (μM) at which maximal suppression was observed, R245X / suppression level (%), maximum in vitro, R245X: Table 20; for suppression level (%), maximum in vitro, R245X: at concentration of maximal suppression; for difference in suppression of R3X versus R245X: maximal suppression levels
Experimental: (§4) Compound 37 was tested for its ability to suppress a nonsense mutation in-vitro, using a reporter construct carrying either R3X nonsense mutation (a premature UGA C stop codon) or R245X nonsense mutation (a premature UGA A stop codon) of the PCDH15 gene, using gentamicin, paromomycin and Compound 3 as standards and following the experimental procedures presented hereinabove.
(§5) For the rat-PGM-β-Gal in vitro readthrough system, the pDB series of reporter plasmids harbor the following elements under SP6 promoter control: an open reading frame (ORF) derived from the 5′ end of the rat PGM gene, which encodes a 25-kDa polypeptide; another small ORF, encoding the 10-kDa alpha complementation region of β-galactosidase, and terminated by tandem, in-frame stop codons (UAA UAG); located between the two ORFs is a DNA fragment derived from PCDH15 cDNA, including the tested stop mutation or the corresponding wild-type codon, and six upstream and downstream flanking codons (except for p.R3X constructs, in which there are only two upstream PCDH15-flanking codons). The fragments were created by annealing the following couples of complementary oligonucleotides:
(§6) The fragments were inserted into the BamHI and HindIII restriction sites of the pDB read-through construct. Reporter plasmids harboring each of the four nonsense mutations and the corresponding wt alleles were in vitro transcribed and translated using the TNT SP6 Coupled Reticulocyte lysate System (Promega) in the presence of [^35S]-methionine and increasing concentrations of aminoglycosides as described previously. […] The degree of suppression was calculated as the relative proportion of the 35-kDa product out of total reaction products (35-kDa and 25-kDa polypeptides). The results are averages of at least three independent experiments.

eukaryotic translation = experiment: Inhibition of eukaryotic translation; format: biochemical
[9] = test system: R3X nonsense mutation (a premature UGA C stop codon) of the PCDH15 gene; experiment: In vitro suppression and translation, pDB650-R3X reporter plasmid in rabbit reticulocyte lysate coupled transcription/translation system; format: biochemical, human; details: for Conc. (concentration at which maximal suppression level was observed) / Supp. level (%), maximal in-vitro mutation suppression: R3X mutation; for Supp. level (%), maximal in-vitro mutation suppression: 35-kDa product out of total protein; for Supp. level (%), maximal in-vitro mutation suppression / Trans. level (%): at Conc. of maximal suppression; for Concentration (μM) at which maximal suppression was observed, R3X / suppression level (%), maximum in vitro, R3X: Table 20; for suppression level (%), maximum in vitro, R3X: at concentration of maximal suppression; for Trans. level (%): total protein relative to no compound
Experimental: Initially, Compounds 1-9 were tested for their ability to suppress this nonsense mutation in vitro, using a reporter construct carrying the R3X nonsense mutation (a premature UGA C stop codon) of the PCDH15 gene. Mutations in the PCDH15 gene which encodes protocardherin 15, cause type 1 Usher syndrome (USH1), which is characterized by profound prelingual hearing loss, vestibular areflexia, and prepubertal onset of retinitis pigmentosa (RP). Four different PCDH15 USH1-causing nonsense mutations, R3X, R245X, R643X, and R929X, have been reported in humans.
Suppression of nonsense mutations by Compounds 1-9 was tested in vitro using a reporter plasmid harboring the R3X mutation of the PCDH15 gene. To create this plasmid, the oligonucleotides 5′-[…]-3′ (SEQ ID NO: 1) and 5′-[…]-3′ (SEQ ID NO: 2) were annealed to each other and inserted into the BamHI and HindIII sites of plasmid pDB650 [6].
The resulting reporter plasmid pDB650-R3X contained a TGA C nonsense mutation between a 25-kDa polypeptide encoding open reading frame (ORF) and a 10-kDa polypeptide encoding ORF.
The plasmid was transcribed and translated in a rabbit reticulocyte lysate coupled transcription/translation system (Promega) in the presence of [^35S]-methionine, and the reaction products were separated by SDS-PAGE and quantified using Phosphorlmager analysis. The mutation suppression level was calculated as the relative proportion of the 35-kDa product out of total protein (the sum of 35-kDa and 25-kDa), and the translation level was calculated as the relative proportion of the total protein at each tested compound concentration out of the total protein without the presence of the tested compounds.
The tested concentrations of paromomycin were 0, 5, 10, 20, 30 and 40 μg/ml, tested concentrations of gentamicin were 0, 5, 10, 20, and 30 μg/ml, and the tested concentrations of Compounds 1-9 were in the range of 0-160 μg/ml.
as §4, §5, §6

Compound	Maximum in vitro suppression (%) G542X [1] [%]	Maximum in vitro suppression (%) W402X [2] [%]	Maximum in vitro suppression (%) R245X [3] [%]	Maximum in vitro suppression (%) W1282X [4] [%]	Maximum in vitro suppression (%) Q70X [5] [%]	Maximum in vitro suppression (%) R3X [6] [%]	Maximum in vitro suppression (%) R3381X [7] [%]	Concentration (μM) at which maximal suppression was observed, R245X [8] [µM]	suppression level (%), maximum in vitro, R245X [8]	difference in suppression of R3X versus R245X [8] [fold]	IC50 (eukaryotic translation) [µM]	Conc. (concentration at which maximal suppression level was observed) ([9]; in vitro) [µg/mL]	Supp. level (%), maximal in-vitro mutation suppression [9] [%]	Concentration (μM) at which maximal suppression was observed, R3X [9] [µM]	suppression level (%), maximum in vitro, R3X [9]	Trans. level (%) [9]	fold more efficient inhibition of eukaryotic translation than gentamicin and paromomycin (eukaryotic translation)	also measured
gentamicin [reference compound]	2.8 ± 0.7	7.2 ± 0.5	0.90 ± 0.28	1.4 ± 0.5	1.5 ± 0.4	14.0 ± 1.0	3.5 ± 0.7	61	11 ± 1.5%	4.5	60	30	49 ± 4	46	50 ± 3%	about 40%		Trans. level (%) ([9]; listed as Gentamicin): 40 ± 9%
NC[C@H]1O[C@@H](O[C@@H]2[C@@H](O)[C@H](N)C[C@H](N)[C@H]2O[C@H]2O[C@H](CO)[C@@H](O)[C@H](O)[C@H]2N)[C@H](O)[C@@H]1O [Compound 3]	0.63 ± 0.29	3.2 ± 0.4	0.98 ± 0.30	1.6 ± 0.4	2.0 ± 0.4	2.9 ± 0.9	1.8 ± 0.2	178	6.0 ± 0.3%	3.5	31	80	21 ± 3	142	21% and 21 ± 9%		about 2 fold	fold higher activity compared to Compound 1 ([9]; R3X, in vitro): over 3 fold; fold higher suppression level compared to Compound 2 ([9]; R3X, in vitro): 13 fold
NCC[C@H](O)C(=O)N[C@@H]1CC(N)[C@@H](O[C@H]2OC(CO)[C@@H](O)C(O)C2N)C(O[C@@H]2O[C@H](CN)C(O)C2O)C1O (stereo partly shown) [Compound 37]	5.1 ± 0.6	21.9 ± 4.4	4.9 ± 0.5	3.3 ± 0.4	10.6 ± 1.1	29.2 ± 3.1	7.8 ± 0.8	153	40.5% and 40.5 ± 7.5%	1.8	24			153	71% and 71 ± 9%		about 3 fold	fold better suppression of R245X than Compound 3 ([8]; maximal suppression level): 6.5 fold; fold better suppression of R245X than gentamicin ([8]; maximal suppression level): 3.6 fold; fold better suppression of R245X than paromomycin ([8]; maximal suppression level): 4.5 fold
NC[C@@H]1O[C@H](O[C@H]2[C@@H](O)[C@H](O[C@@H]3[C@@H](O)[C@H](N)C[C@H](N)[C@H]3O[C@H]3O[C@H](CO)[C@@H](O)[C@H](O)[C@H]3N)O[C@@H]2CO)[C@H](N)[C@@H](O)[C@@H]1O [paromomycin, reference compound]	0.74 ± 0.08	3.3 ± 0.1	0.71 ± 0.32	1.2 ± 0.2	2.2 ± 0.5	9.4 ± 0.5	2.4 ± 0.3	42	9 ± 3%	5.4	58	40	49	56	49 ± 6%	about 40%		Supp. level (%), maximal in-vitro mutation suppression ([9]; listed as Paromomycin): 49 ± 6%; Trans. level (%) ([9]; listed as Paromomycin): 40 ± 13%
